Assays:
GLUT1 = target: T1, GLUT1 (Homo sapiens, UniProt P11166); assay: Indirect measurement of GLUT activity by quantification of intracellular ATP levels: glucose induced ATP increase (GLUT1 inhibition); format: cell-based; details: DLD1 cells; 1 mM glucose, 1 uM Rotenone, 15 min; CellTiter-Glo ATP levels; IC50 values standardized to cytochalasin B IC50 values; read-out: IC50 regarding glucose induced ATP increase (GLUT1 inhibition)
T1 construct: endogenous in cells; host or cells: DLD1 or CHO-K1
T1 sequence (P11166 1-492): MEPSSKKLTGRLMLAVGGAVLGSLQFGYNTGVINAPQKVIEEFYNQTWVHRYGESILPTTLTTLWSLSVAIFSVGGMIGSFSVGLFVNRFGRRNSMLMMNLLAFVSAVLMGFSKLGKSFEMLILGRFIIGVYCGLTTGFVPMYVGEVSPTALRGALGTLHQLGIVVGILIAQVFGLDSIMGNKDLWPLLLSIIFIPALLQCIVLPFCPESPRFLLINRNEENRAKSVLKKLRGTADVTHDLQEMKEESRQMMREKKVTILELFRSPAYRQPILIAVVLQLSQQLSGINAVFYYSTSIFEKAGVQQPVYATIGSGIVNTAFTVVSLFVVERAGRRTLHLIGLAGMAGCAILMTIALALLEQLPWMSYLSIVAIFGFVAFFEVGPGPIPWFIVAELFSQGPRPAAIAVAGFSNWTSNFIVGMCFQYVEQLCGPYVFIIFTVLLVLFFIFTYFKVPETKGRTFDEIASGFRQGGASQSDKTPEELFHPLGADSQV
Excerpt: (§1) Indirect Measurement of GLUT Activity by Quantification of Intracellular ATP Levels
(§2) It is well known that a combination of small-molecule inhibitors of mitochondrial electron transport chain and glucose catabolism synergistically suppress ATP production and impair cellular viability (Ulanovskaya et al., 2008, 2011; Liu, et al. 2001). We therefore used DLD1 or CHO-K1 cells in combination with an oxidative phosphorylation inhibitor to identify GLUT inhibitors. Cell lines were maintained in DMEM medium supplemented with 10% FCS and 1% Penicillin-Streptomycin solution and 2% Glutamax. The cells were treated with trypsin and seeded into 384 plates at a density of 4000 cells/well. The cells were then cultured overnight in glucose free media containing 1% FCS to reduce intracellular ATP levels. After 24 h the cells were incubated at 37° C. containing the appropriate glucose or in case of GLUT2 fructose concentration (1 mM and 30 mM respectively) with or without compounds and 1 uM Rotenone for 15 min. The CellTiter-Glo® Luminescent Cell Viability Assay from Promega was then used to measure ATP levels. Compounds able to reduce the ATP levels within 15 min of glucose application were considered to be glucose uptake inhibitors.

GLUT2 = target: T2, GLUT2 (Homo sapiens, UniProt P11168); assay: Indirect measurement of GLUT activity by quantification of intracellular ATP levels: fructose induced ATP increase (GLUT2 inhibition); format: cell-based; details: 30 mM fructose, 1 uM Rotenone, 15 min; CellTiter-Glo ATP levels; DLD1 or CHO-K1 cells; read-out: IC50 regarding fructose induced ATP increase (GLUT2 inhibition)
T2 construct: host or cells: DLD1 or CHO-K1
T2 sequence (P11168 1-524): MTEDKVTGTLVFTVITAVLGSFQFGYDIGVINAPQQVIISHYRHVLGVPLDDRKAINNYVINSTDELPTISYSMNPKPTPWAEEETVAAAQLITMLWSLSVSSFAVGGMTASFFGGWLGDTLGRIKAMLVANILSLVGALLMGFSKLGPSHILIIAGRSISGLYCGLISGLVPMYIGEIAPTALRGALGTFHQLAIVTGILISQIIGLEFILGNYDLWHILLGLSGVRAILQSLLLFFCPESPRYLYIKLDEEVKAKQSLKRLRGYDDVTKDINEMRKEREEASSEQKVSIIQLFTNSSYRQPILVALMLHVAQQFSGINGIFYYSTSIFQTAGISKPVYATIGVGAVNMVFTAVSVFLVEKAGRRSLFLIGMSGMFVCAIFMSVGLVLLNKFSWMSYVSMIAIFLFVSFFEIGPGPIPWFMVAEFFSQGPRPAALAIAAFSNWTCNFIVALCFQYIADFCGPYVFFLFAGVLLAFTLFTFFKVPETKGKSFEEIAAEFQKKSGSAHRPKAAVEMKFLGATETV
Excerpt: as §1, §2

Cc1ccc2nc(C)cc(C(=O)Nc3cnn(Cc4ccc(F)cc4)c3C)c2c1 [Example 1, N-[1-(4-fluorobenzyl)-5-methyl-1H-pyrazol-4-yl]-2,6-dimethylquinoline-4-carboxamide]
IC50 (GLUT1): 9.4 nM | IC50 (GLUT2): 5990 nM

COc1cc(C(=O)Nc2cnn(Cc3ccc(C#N)cc3)c2C)c2ccccc2n1 [Example 10, N-[1-(4-cyanobenzyl)-5-methyl-1H-pyrazol-4-yl]-2-methoxyquinoline-4-carboxamide]
IC50 (GLUT1): 87 nM | IC50 (GLUT2): 1650 nM

CNC(=O)c1nc(Cn2ncc(NC(=O)c3cc(C(N)=O)nc4ccccc34)c2C)no1 [Example 36, N^4-(5-methyl-1-{[5-(methylcarbamoyl)-1,2,4-oxadiazol-3-yl]methyl}-1H-pyrazol-4-yl)quinoline-2,4-dicarboxamide]
IC50 (GLUT1): 2220 nM

CCc1noc(Cn2ncc(NC(=O)c3cc(C(N)=O)nc4ccccc34)c2C)n1 [Example 37, N^4-{1-[(3-ethyl-1,2,4-oxadiazol-5-yl)methyl]-5-methyl-1H-pyrazol-4-yl}quinoline-2,4-dicarboxamide]
IC50 (GLUT1): 1920 nM

CCS(=O)(=O)N1CCC(Cn2ncc(NC(=O)c3cc(C(F)(F)F)nc4ccc(Br)cc34)c2C)CC1 [Example 38, 6-bromo-N-(1-{[1-(ethylsulfonyl)piperidin-4-yl]methyl}-5-methyl-1H-pyrazol-4-yl)-2-(trifluoromethyl)quinoline-4-carboxamide]
IC50 (GLUT1): 615 nM

Cc1nc(Cn2ncc(NC(=O)c3cc(C(N)=O)nc4ccccc34)c2C)cs1 [Example 39, N^4-{5-methyl-1-[(2-methyl-1,3-thiazol-4-yl)methyl]-1H-pyrazol-4-yl}quinoline-2,4-dicarboxamide]
IC50 (GLUT1): 517 nM

CNC(=O)c1nc(Cn2ncc(NC(=O)c3cc(C(F)(F)F)nc4ccc(Br)cc34)c2C)no1 [Example 40, 6-bromo-N-(5-methyl-1-{[5-(methylcarbamoyl)-1,2,4-oxadiazol-3-yl]methyl}-1H-pyrazol-4-yl)-2-(trifluoromethyl)quinoline-4-carboxamide]
IC50 (GLUT1): 456 nM

Cc1nc(Cn2ncc(NC(=O)c3cc(C(F)(F)F)nc4ccc(Br)cc34)c2C)cs1 [Example 41, 6-bromo-N-{5-methyl-1-[(2-methyl-1,3-thiazol-4-yl)methyl]-1H-pyrazol-4-yl}-2-(trifluoromethyl)quinoline-4-carboxamide]
IC50 (GLUT1): 284 nM

Cc1cc(Cn2ncc(NC(=O)c3cc(C(F)(F)F)nc4ccc(Br)cc34)c2C)no1 [Example 42, 6-bromo-N-{5-methyl-1-[(5-methyl-1,2-oxazol-3-yl)methyl]-1H-pyrazol-4-yl}-2-(trifluoromethyl)quinoline-4-carboxamide]
IC50 (GLUT1): 1130 nM

CCS(=O)(=O)N1CCC(Cn2ncc(NC(=O)c3cc(C(N)=O)nc4ccccc34)c2C)CC1 [Example 43, N^4-(1-{[1-(ethylsulfonyl)piperidin-4-yl]methyl}-5-methyl-1H-pyrazol-4-yl)quinoline-2,4-dicarboxamide]
IC50 (GLUT1): 396 nM

Cc1c(NC(=O)c2cc(C(F)(F)F)nc3ccc(Br)cc23)cnn1Cc1ccn(C)n1 [Example 44, 6-bromo-N-{5-methyl-1-[(1-methyl-1H-pyrazol-3-yl)methyl]-1H-pyrazol-4-yl}-2-(trifluoromethyl)quinoline-4-carboxamide]
IC50 (GLUT1): 531 nM

Cc1cc(Cn2ncc(NC(=O)c3cc(C(N)=O)nc4ccccc34)c2C)no1 [Example 45, N^4-{5-methyl-1-[(5-methyl-1,2-oxazol-3-yl)methyl]-1H-pyrazol-4-yl}quinoline-2,4-dicarboxamide]
IC50 (GLUT1): 222 nM

Source: patent US20170210738A1, “GLUCOSE TRANSPORT INHIBITORS” (Bayer Pharma Aktiengesellschaft, priority 2014, published 2017)
